SMILES strings stand for the structures.

In one assay the test system is FZD5–DEP–Clamp sensor. Nature of the assay: FZD5–DEP–Clamp BRET sensor in stably expressing HEK293A cells. It counts as cell-based, human. The method, then:
To generate the stable FZD5–DEP–Clamp cell line, HEK293A cells were seeded at a density of 500,000 cells/well in a 6-well plate. On the next day, the adherent cells were transfected with 2 μg of FZD5–DEP–Clamp (TK) plasmid using PEI as the transfection reagent. After 2 days of transfection, cells were detached and transferred to a 75 cm^2 flask. Stably transfected cells were selected using complete medium (DMEM + 10% fetal calf serum + 1% penicillin–streptomycin) supplemented with 2000 μg/ml G-418 sulfate (Gibco; catalog no.: 10131027) for 3 weeks. After obtaining stable growth, cell culture of the stable cell line was continued with 500 μg/ml G-418.
For kinetic experiments with the FZD5–DEP–Clamp sensor, BRET values were first baseline-corrected for every well separately by subtracting the average of the first three reads prior ligand addition. Afterward, the average values for vehicle-containing wells were subtracted for every timepoint to get access to actual ligand-induced changes in BRET ratio (ΔBRET values).
Figure S4. […] (A) Shown is the BRET time-course recorded upon addition of 30 µM compound 11 or vehicle (DMSO). […] The cell surface pool of transiently-transfected HiBiT-FZD5 (B) and HiBiT-FZD6 (C) was assessed by addition of recombinant LgBiT in combination with detection of NanoBiT luminescence. […]
A general note: BRET reads energy transfer from a luciferase to a nearby fluorophore.

In a further assay the test system is PANC-1 cells. As to the kind of experiment: Cell viability (AlamarBlue) of PANC-1 cells. It is filed as cell-based, human. The conditions noted are these: one-week treatment; 10 µM. The method, then: HPAF-II cells and PANC-1 cells were seeded in DMEM at a density of 1000 cells per well into a black opaque 96-well plate (Greiner BioOne). After 1 day, the medium was exchanged with complete DMEM containing either compound 11, the porcupine inhibitor C59, or DMSO (vehicle control). After 3 days of incubation (37 °C, 5% CO2), the medium was exchanged once again with DMEM containing the same concentration of ligands or DMSO (vehicle control). Three days after (equal to 7 days after seeding), the medium was removed and 90 μl of fresh DMEM (without any ligands) were added. Last, 10 μl of AlamarBlue HS reagent (Thermo Fisher Scientific; catalog no.: A50100) were added to each well, and the cells were incubated for 4 h at 37 °C inside the incubator (5% CO2). After the incubation step, fluorescence was read using a TECAN Spark multimode microplate reader (excitation: 535 ± 25 nm, emission: 595 ± 35 nm).
For each cell viability experiment, the fluorescence measured in ligand-treated wells was normalized to the average fluorescence from wells treated with vehicle control (DMSO).

Another assay concerns the target T1, HiBiT-FZD6 (Homo sapiens, UniProt O60353).
T1 construct: expressed in transfected cells; host or cells: HEK293A cells
T1 sequence (O60353 19-706): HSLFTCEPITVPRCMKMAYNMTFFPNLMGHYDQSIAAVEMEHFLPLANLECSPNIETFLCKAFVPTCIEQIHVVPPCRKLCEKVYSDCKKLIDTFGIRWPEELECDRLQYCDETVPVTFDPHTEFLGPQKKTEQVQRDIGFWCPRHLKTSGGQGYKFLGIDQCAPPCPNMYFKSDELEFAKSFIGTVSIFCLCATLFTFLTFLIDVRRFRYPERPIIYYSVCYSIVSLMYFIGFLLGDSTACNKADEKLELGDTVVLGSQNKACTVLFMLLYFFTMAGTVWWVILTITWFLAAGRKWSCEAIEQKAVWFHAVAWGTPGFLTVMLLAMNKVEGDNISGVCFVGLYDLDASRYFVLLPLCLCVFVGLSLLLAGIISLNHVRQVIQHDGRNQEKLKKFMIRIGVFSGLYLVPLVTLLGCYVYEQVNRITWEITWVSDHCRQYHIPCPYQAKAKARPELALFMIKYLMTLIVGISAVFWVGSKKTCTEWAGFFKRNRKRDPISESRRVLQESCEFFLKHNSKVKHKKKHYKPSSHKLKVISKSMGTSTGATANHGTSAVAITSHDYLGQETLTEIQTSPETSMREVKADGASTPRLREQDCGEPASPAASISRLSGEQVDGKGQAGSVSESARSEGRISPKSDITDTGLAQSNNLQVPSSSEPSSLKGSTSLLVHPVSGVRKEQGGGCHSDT
As to the kind of experiment: NanoBiT cell surface expression assay, HiBiT-FZD6. The conditions noted are these: 10 μM, overnight exposure. It is filed as cell-based. As to the method: Subsequently, 10 μl of either compound 11 or 26 (DD436001) was added at a final concentration of 10 μM. DMSO was added separately as a control. One day after compound or DMSO addition, cells were washed once with HBSS, and 90 μl of HBSS was added to the wells. To measure cell surface expression, a 1:20 dilution of furimazine live cell substrate and 1:20 LgBiT mix (final dilution = 1:200) were prepared in HBSS and 10 μl was added. The plate was incubated for 30 min to allow for HiBiT–LgBiT complementation, and then luminescence was measured on a TECAN Spark multimode microplate reader between 460 and 500 nm (integration time: 200 ms).
Figure S4. BRET time-course of compound 11 at the FZD5-DEP-Clamp in agonist mode and HiBiT-FZD5/6 surface expression upon compound exposure. (A) Shown is the BRET time-course recorded upon addition of 30 µM compound 11 or vehicle (DMSO). Experiments were performed in HEK293A cells stably expressing the FZD5-DEP-Clamp sensor. […] The timepoint of ligand addition is indicated by a black arrow. (B, C) Impact of compound 11 on FZD cell surface expression. The cell surface pool of transiently-transfected HiBiT-FZD5 (B) and HiBiT-FZD6 (C) was assessed by addition of recombinant LgBiT in combination with detection of NanoBiT luminescence. […]
(With HiBiT, luminescence reflects the tagged protein that the partner subunit can reach.)

Take `CC(=O)Nc1cccc(C(=O)NC2CCC(N(Cc3cccc(-c4ccncc4)c3)C(=O)c3sc4ccccc4c3Cl)CC2)c1` (stereo not shown) [compound 11, N-((1r,4r)-4-(3-Acetamidobenzamido)cyclohexyl)-3-chloro-N-(3-(pyridin-4-yl)benzyl)benzo[b]thiophene-2-carboxamide]: in the assay on FZD5–DEP–Clamp sensor (500 ng/ml high-purity WNT-3A with 30 μM compound), the “Effect on WNT-induced FZD5–DEP–Clamp response” value is “able to interfere with the WNT-induced effects”. Further, in the assay with FZD5–DEP–Clamp sensor (30 µM compound, agonist mode), the “BRET response of FZD5–DEP–Clamp, compound alone” value is listed as “did not elicit a robust change in BRET response”. The “Cell viability of RNF43-wildtype PANC-1 cells” value in the assay with PANC-1 cells is “not significantly affected”. Moreover, on HiBiT-FZD6, the “Effect on surface levels of HiBiT-FZD6” value was “had no effect”.

The record behind these values is article PMC12605013, “SAG1.3-derived Frizzled-targeting small-molecule compounds” (The Journal of Biological Chemistry, 2025).
